{
  "source": "patent US8343966B2",
  "about": "“Organic compounds” (Novartis AG, priority 2008, dated 2013)",
  "origin": "cited, not measured here",
  "molecules": {"B1": {"name": "Follistatin: an antagonist of activin signalling (protein, UniProt P19883 30-344, looked up)", "Follistatin": "GNCWLRQAKNGRCQVLYKTELSKEECCSTGRLSTSWTEEDVNDNTLFKWMIFNGGAPNCIPCKETCENVDCGPGKKCRMNKKNKPRCVCAPDCSNITWKGPVCGLDGKTYRNECALLKARCKEQPELEVQYQGRCKKTCRDVFCPGSSTCVVDQTNNAYCVTCNRICPEPASSEQYLCGNDGVTYSSACHLRKATCLLGRSIGLAYEGKCIKAKSCEDIQCTGGKKCLWDFKVGRGRCSLCDELCPDSKSDEPVCASDNATYASECAMKEAACSSGVLLEVKHSGSCNSISEDTEEEEEDEDQDYSFPISSILEW"}},
  "key": {"[1]": {"test_system": "dimethylnitrosamine induced liver fibrosis", "conditions": "cited from earlier work"}, "bleomycin-treated rats": {"test_system": "bleomycin-treated rats", "conditions": "cited from earlier work"}, "[2]": {"conditions": "given therapeutically to rat, 3 weeks treatment"}},
  "data": [
    {"molecule": "c1ccc(-c2cc(-c3cn[nH]c3-c3ccccn3)ccn2)cc1", "note": "[GW6604]", "values": [
      {"measurement": "side effects", "setting": "[1]; during the 3 weeks treatment", "value": "no obvious side effects"},
      {"measurement": "inhibition of extracellular matrix deposition", "setting": "[1]; [2]", "value": 60, "unit": "%"},
      {"measurement": "prevented death rate", "setting": "[1]; [2]", "value": 40, "unit": "%"}
    ]},
    {"molecule": "B1", "values": [
      {"measurement": "lung fibrosis", "setting": "bleomycin-treated rats", "value": "attenuated"},
      {"measurement": "number of macrophages and neutrophils in bronchoalveolar lavage", "setting": "bleomycin-treated rats", "value": "significantly reduced"}
    ]}
  ]
}
